This note sets out measurements from US4727082A, “Dihydropyridine compounds and pharmaceutical compositions containing them” (Yamanouchi Pharmaceutical Co., Ltd., priority 1984, dated 1988).

Like-named read-outs stand apart in the source and are kept apart here.

Assay [1] is described as follows: Hemodynamic effects in anesthetized open-chest dogs. It counts as in vivo, Mongrel dogs. To be noted: Canis lupus familiaris; for change in vivo at 1 mg/kg: 1.0 mg/kg iv; for change in vivo at 0.3 mg/kg: 0.3 mg/kg iv; for change in vivo at 0.1 mg/kg: 0.1 mg/kg iv. The method, then: Mongrel dogs of either sex were anesthetized with pentobarbital sodium (30 mg/kg iv). The animals were artificially ventilated with room air. The chest was opened at the left 4th intercostal space. Mean arterial blood pressure (MBP), heart rate (HR), left ventricular pressure (LVP), max. dLVP/dt, mean pulmonary arterial blood pressure (MPAP), cardiac output (CO) and coronary blood flow (Cor. BF) were measured. The test compounds were injected into the femoral vein. Hemodynamic effects of these compounds were compared with that of well known Ca^2+ -antagonists. Table 1 (column 1) indicates the percent changes of MBP and Cor. BF from control values induced by intravenous injection of test compounds.

The next assay deals with coronary artery. As to the kind of experiment: Coronary vasodilating effects, intracoronary injection in anesthetized dogs. Format: in vivo, Mongrel dogs. To be noted: for Duration of action of coronary vasodilating effect: intracoronary injection; for ED100 pap (dose for 100% increase of Cor. BF): intracoronary, maximum response to papaverine 300 μg ia = 100%. The method, then: Mongrel dogs of either sex were anesthetized and ventilated as previously described. A thoracotomy was performed at the 4th intercostal space. Following an intravenous injection of […] (1000 units/kg), blood from the distal end of the cannulated carotid artery was pumped into circumflex branch of the left coronary artery using a servocontrolled peristaltic pump which maintained a constant perfusion pressure of 120 mmHg by means of a pump controller. An electromagnetic flow probe was inserted in the circuit to record blood flow through the cannulated coronary artery. The test compounds were administered directly into the rubber tubing connected close to the coronary artery cannula. Coronary vasodilating potency of the test compounds was by calculating the dose required to produce 100% increase of Cor. BF (ED100 pap), when the maximum responses to papaverine at a dose of 300 μg ia was expressed at 100% response.

In assay [2] the target is T1, Beta-adrenoceptor (Rattus norvegicus, UniProt P18090).
T1 construct: from tissue; host or cells: heart in situ of anesthetized male Wistar rats (in vivo, i.v. dosing)
T1 sequence (P18090 whole entry): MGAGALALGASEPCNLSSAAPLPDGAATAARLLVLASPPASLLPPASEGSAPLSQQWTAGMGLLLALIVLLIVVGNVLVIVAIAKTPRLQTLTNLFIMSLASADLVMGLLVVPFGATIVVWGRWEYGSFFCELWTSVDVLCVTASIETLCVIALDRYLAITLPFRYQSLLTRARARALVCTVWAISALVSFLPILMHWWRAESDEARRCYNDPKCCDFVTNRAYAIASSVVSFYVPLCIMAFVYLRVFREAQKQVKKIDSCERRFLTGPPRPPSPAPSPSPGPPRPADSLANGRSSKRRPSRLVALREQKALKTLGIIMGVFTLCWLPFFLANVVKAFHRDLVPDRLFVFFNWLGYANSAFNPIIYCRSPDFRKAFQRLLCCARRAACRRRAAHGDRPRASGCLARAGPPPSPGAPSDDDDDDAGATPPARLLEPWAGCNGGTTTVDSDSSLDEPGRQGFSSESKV
In words: Beta-adrenoceptor blocking effects: blockade of positive chronotropic response to isoproterenol. It counts as in vivo, male Wistar rats. As to conditions: read-out: Beta Blocking ED50. The method, then: (§1) The rats were pretreated with reserpine (8 mg/kg ip), 18 hr before experiments. […] The heart rate was measured with a cardiotachometer triggered by the QRS of the ECG (lead II) and recorded on a polygraph. After the control response to isoproterenol at a dose of 0.1 μg/kg iv was obtained, the test compound was injected iv in increasing doses at 20 min intervals.

Assay [3] addresses T1, Beta-adrenoceptor. In words: Intrinsic sympathomimetic activity (ISA), increase in heart rate. It counts as in vivo, male Wistar rats. As to conditions: increase in HR, reserpinized rats, iv. The method, then:
as §1
In this series of experiments, intrinsic sympathomimetic activity (ISA) was also evaluated. The results are shown in Table 1 (column 4), wherein "-" represents that an increase in HR was scarcely observed, "+" represents an increase in HR of 10 to 19 beats/min, "++" represents an increase in HR of 20 to 29 beats/min, and "+++" represents an increase in HR of above 30 beats/min.

[4] abbreviates: read-out: Cor. BF, percent change from control.
Where [5] appears, read: read-out: MBP, percent change from control.
Setting [6] is: 50% blockade of chronotropic response to isoproterenol 0.1 μg/kg iv, reserpinized, vagotomized rats, cumulative dose.

Turning to `COC(=O)C1=C(C)NC(C)=C(C(=O)OC)C1c1cc(Cl)ccc1OCCCCNCC(O)COc1ccccc1` (stereo not drawn) [Example 24, dimethyl 4-[5-chloro-2-[4-(2-hydroxy-3-phenoxypropylamino)butoxy]phenyl]-2,6-dimethyl-1,4-dihydropyr idine-3,5-dicarboxylate], the change in vivo at 1 mg/kg was 62% in assay [1] (setting [4]) and -33% in assay [1] (setting [5]). In addition, the “Duration of action of coronary vasodilating effect” value (from here on “Duration”) with coronary artery is 60 min. Moreover, in the assay on coronary artery, the “ED100 pap (dose for 100% increase of Cor. BF)” value is 245 μg ia. At Beta-adrenoceptor [2] (setting [6]), the ED50 is 1.5 mg/kg. The ISA result on Beta-adrenoceptor [3] is recorded as “-”.
Take `COC(=O)C1=C(C)NC(C)=C(C(=O)OC)C1c1cc([N+](=O)[O-])ccc1OCCCCNC[C@H](O)COc1ccccc1` [Example 16, (S)-(-)-dimethyl 4-[2-[4-(2-hydroxy-3-phenoxypropylamino)butoxy]-5-nitrophenyl]-2,6-dimethyl-1,4-dihydropyridine-3,5-dicarboxylate]: the change in vivo at 1 mg/kg in assay [1] (setting [4]) was 97%. Moreover, the change in vivo at 1 mg/kg in assay [1] (setting [5]) is -31%. In addition, in the assay on coronary artery, the “Duration” value is more than 60 min and the “ED100 pap (dose for 100% increase of Cor. BF)” value is 162 μg ia. Moreover, the ED50 on Beta-adrenoceptor [2] (setting [6]) was 0.39 mg/kg. Besides, the ISA entry at Beta-adrenoceptor [3] was “-”.
Take `COc1ccc([C@@H]2Sc3ccccc3N(CCN(C)C)C(=O)[C@@H]2OC(C)=O)cc1` [Diltiazem, reference compound]: the change in vivo at 0.3 mg/kg in assay [1] (setting [4]) was determined as 90%. Besides, the change in vivo at 0.3 mg/kg in assay [1] (setting [5]) was -30%. Moreover, in the assay with coronary artery, the “Duration” value was 20 min and the “ED100 pap (dose for 100% increase of Cor. BF)” value was found to be 51 μg ia.
For the compound `COC(=O)C1=C(C)NC(C)=C(C(=O)OC)C1c1cc([N+](=O)[O-])ccc1OCCCCNC[C@@H](O)COc1ccccc1` [Example 17, (R)-(+)-dimethyl 4-[2-[4-(2-hydroxy-3-phenoxypropylamino)butoxy]-5-nitrophenyl]-2,6-dimethyl-1,4-dihydropyridine-3,5-dicarboxylate], in assay [1] (setting [4]), the change in vivo at 1 mg/kg came out at 94%. In addition, the change in vivo at 1 mg/kg in assay [1] (setting [5]) is -35%. Besides, in the assay on coronary artery, the “Duration” value is more than 60 min and the “ED100 pap (dose for 100% increase of Cor. BF)” value is recorded as 158 μg ia. Moreover, the ED50 on Beta-adrenoceptor [2] (setting [6]) stood at 3.53 mg/kg. Moreover, the ISA result on Beta-adrenoceptor [3] is given as “-”.
Take `COC(=O)C1=C(C)NC(C)=C(C(=O)OC)C1c1cc([N+](=O)[O-])ccc1OCCCCNCC(O)COc1ccccc1` (stereo not drawn) [Example 15, dimethyl 4-[2-[4-(2-hydroxy-3-phenoxypropylamino)butoxy]-5-nitrophenyl]-2,6-dimethyl-1,4-dihydropyridine-3,5-dicarboxylate]: in assay [1] (setting [4]), the change in vivo at 1 mg/kg came to 96%. Besides, the change in vivo at 1 mg/kg in assay [1] (setting [5]) is -33%. In addition, in the assay on coronary artery, the “Duration” value is given as more than 60 min and the “ED100 pap (dose for 100% increase of Cor. BF)” value was 228 μg ia. Moreover, the median effective dose (ED50) on Beta-adrenoceptor [2] (setting [6]) is 0.7 mg/kg. The ISA result on Beta-adrenoceptor [3] was “-”.
As for `COC(=O)C1=C(C)NC(C)=C(C(=O)OC)C1c1cc(OC)ccc1OCCCCNCC(O)COc1ccccc1` (stereo not drawn) [Example 26, dimethyl 4-[2-[4-(2-hydroxy-3-phenoxypropylamino)butoxy]-5-methoxyphenyl]-2,6-dimethyl-1,4-dihydropyridine-3,5-dicarboxylate], the values for the change in vivo at 1 mg/kg in assay [1] (setting [4]) and in assay [1] (setting [5]) were 43% and -38%, respectively. Also, in the assay on coronary artery, the “Duration” value turned out to be 40 min. The “ED100 pap (dose for 100% increase of Cor. BF)” value in the assay on coronary artery is given as 600 μg ia. Also, the ED50 on Beta-adrenoceptor [2] (setting [6]) is 0.53 mg/kg. Besides, the ISA entry at Beta-adrenoceptor [3] is on record as “-”.
In the case of `COC(=O)C1=C(C)NC(C)=C(C(=O)OC)C1c1cc([N+](=O)[O-])ccc1OCCCCCNCC(O)COc1ccccc1` (stereo not drawn) [Example 12, dimethyl 4-[2-[5-(2-hydroxy-3-phenoxypropylamino)pentyloxy]-5-nitrophenyl]-2,6-dimethyl-1,4-dihydropyridine-3,5-dicarboxylate], the change in vivo at 0.3 mg/kg is 14% in assay [1] (setting [4]) and -18% in assay [1] (setting [5]). Besides, in the assay on coronary artery, the “Duration” value was more than 60 min. The “ED100 pap (dose for 100% increase of Cor. BF)” value with coronary artery was found to be 475 μg ia. The ED50 at Beta-adrenoceptor [2] (setting [6]) amounted to 2.58 mg/kg. Also, the ISA result at Beta-adrenoceptor [3] is on record as “-”.
On to `COC(=O)C1=C(C)NC(C)=C(C(=O)OC)C1c1cc([N+](=O)[O-])ccc1OCCNCC(O)COc1ccccc1` (stereo not drawn) [Example 1, dimethyl 4-[2-[2-(2-hydroxy-3-phenoxypropylamino)ethoxy]-5-nitrophenyl]-2,6-dimethyl-1,4-dihydropyridine-3,5-dicarboxylate], for which, in assay [1] (setting [4]), the change in vivo at 0.1 mg/kg came to 21% and the change in vivo at 0.3 mg/kg worked out at 69%. Moreover, in assay [1] (setting [5]), the change in vivo at 0.1 mg/kg was -7% and the change in vivo at 0.3 mg/kg is -17%. In addition, in the assay on coronary artery, the “Duration” value was found to be 15 min and the “ED100 pap (dose for 100% increase of Cor. BF)” value is 75 μg ia. The ED50 at Beta-adrenoceptor [2] (setting [6]) is 0.13 mg/kg. For the same compound, the ISA result at Beta-adrenoceptor [3] is reported as “+++ (an increase in HR of above 30 beats/min)”.
In the case of `COC(=O)C1=C(C)NC(C)=C(C(=O)OC)C1c1cc(S(C)(=O)=O)ccc1OCCCCNCC(O)COc1ccccc1` (stereo not drawn) [Example 23, dimethyl 4-[2-[4-(2-hydroxy-3-phenoxypropylamino)butoxy]-5-methylsulfonylphenyl]-2,6-dimethyl-1,4-dihydropyridine-3,5-dicarboxylate], in assay [1] (setting [4]), the change in vivo at 1 mg/kg was found to be 64%. Further, the change in vivo at 1 mg/kg in assay [1] (setting [5]) was -32%. In the assay on coronary artery, the “Duration” value is more than 60 min and the “ED100 pap (dose for 100% increase of Cor. BF)” value was 780 μg ia. Moreover, the ED50 on Beta-adrenoceptor [2] (setting [6]) turned out to be 0.03 mg/kg. Also, on Beta-adrenoceptor [3], the ISA entry is given as “-”.
As to `COC(=O)C1=C(C)NC(C)=C(C(=O)OC)C1c1cc([N+](=O)[O-])ccc1OCCCNCC(O)COc1ccccc1` (stereo not drawn) [Example 8, dimethyl 4-[2-[3-(2-hydroxy-3-phenoxypropylamino)propoxy]-5-nitrophenyl]-2,6-dimethyl-1,4-dihydropyridine-3,5-dicarboxylate], in assay [1] (setting [4]), the change in vivo at 1 mg/kg is 10%. Further, the change in vivo at 1 mg/kg in assay [1] (setting [5]) is -29%. In the assay with coronary artery, the “Duration” value amounted to 60 min and the “ED100 pap (dose for 100% increase of Cor. BF)” value was 645 μg ia. At Beta-adrenoceptor [2] (setting [6]), the ED50 turned out to be 0.31 mg/kg. The ISA entry at Beta-adrenoceptor [3] was “+ (an increase in HR of 10 to 19 beats/min)”.
Take `COC(=O)C1=C(C)NC(C)=C(C(=O)OC)C1c1cc(SC)ccc1OCCCCNCC(O)COc1ccccc1.Cl` (stereo not drawn) [Example 28, dimethyl 4-[2-[4-(2-hydroxy-3-phenoxypropylamino)butoxy]-5-methylthiophenyl]-2,6-dimethyl-1,4-dihydropyridine-3,5-dicarboxylate hydrochloride]: the change in vivo at 1 mg/kg was 70% in assay [1] (setting [4]) and -28% in assay [1] (setting [5]). In the assay with coronary artery, the “Duration” value stood at 30 min. For the same compound, in the assay on coronary artery, the “ED100 pap (dose for 100% increase of Cor. BF)” value stood at 555 μg ia. The ED50 on Beta-adrenoceptor [2] (iv) amounted to 0.27 mg/kg. The ISA entry at Beta-adrenoceptor [3] is given as “-”.
Consider `COC(=O)C1=C(C)NC(C)=C(C(=O)OC)C1c1cc([N+](=O)[O-])ccc1OCCCCNCC(O)COc1ccc(NC(C)=O)cc1` (stereo not drawn) [Example 42, dimethyl 4-[2-[4-[3-(p-acetamidophenoxy)-2-hydroxypropylamino]butoxy]-5-nitrophenyl]-2,6-dimethyl-1,4-dihydropyridine-3,5-dicarboxylate], for which the change in vivo at 1 mg/kg in assay [1] (setting [4]) is 8%; in assay [1] (setting [5]), -13%. Moreover, in the assay with coronary artery, the “Duration” value is recorded as more than 60 min. For the same compound, the “ED100 pap (dose for 100% increase of Cor. BF)” value in the assay on coronary artery was found to be 515 μg ia. Moreover, the ED50 at Beta-adrenoceptor [2] (setting [6]) is 0.5 mg/kg. Besides, the ISA result on Beta-adrenoceptor [3] is reported as “-”.
